Test results reported in PubChem BioAssay AID330 (DTP/NCI, 2004).
Values joined by “and” are separate entries in the source; they are usually repeats but may differ in a detail not shown here. Identical values can stand only once. Toxic doses and inconclusive results are not listed. Rule for the calls: active = survival T/C of 150% or more; inactive = T/C below 125% in these data.

Tested on: P388 leukemia ip, CD2F1 mice, survival T/C
Assay: NCI In Vivo Anticancer Drug Screen. Data for tumor model P388 Leukemia (intraperitoneal) in CD2F1 (CDF1) mice
Conditions: endpoint: median survival time, higher = longer survival
In short: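 Mice carrying the transplanted tumor received test compound or vehicle. Survival was recorded in each group, and the value is the treated-group measurement divided by that of the vehicle-treated control group.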

[1] = dose: 25.0 mg/kg/injection, schedule: Q04DX002 (ip), vehicle: saline with Tween-80
[2] = dose: 50.0 mg/kg/injection, schedule: Q04DX002 (ip), vehicle: saline with Tween-80
[3] = dose: 100.0 mg/kg/injection, schedule: Q04DX002 (ip), vehicle: saline with Tween-80
[4] = dose: 50.0 mg/kg/injection, schedule: Q01DX009 (ip), vehicle: other
[5] = dose: 100.0 mg/kg/injection, schedule: Q01DX009 (ip), vehicle: other
[6] = dose: 200.0 mg/kg/injection, schedule: Q01DX009 (ip), vehicle: other
[7] = dose: 60.0 mg/kg/injection, schedule: Q01DX005 (ip), vehicle: saline with Tween-80
[8] = dose: 120.0 mg/kg/injection, schedule: Q01DX005 (ip), vehicle: saline with Tween-80
[9] = dose: 240.0 mg/kg/injection, schedule: Q01DX005 (ip), vehicle: saline with Tween-80
[10] = dose: 100.0 mg/kg/injection, schedule: Q01DX009 (ip), vehicle: saline with Tween-80

Measured: T/C

C/C(=N\NC(N)=S)c1ccc2c(c1)Cc1cc(/C(C)=N/NC(N)=S)ccc1-2
inactive: [1] 99 % of control | [2] 92 % of control | [3] 93 % of control | dose: 200.0 mg/kg/injection, schedule: Q04DX002 (ip), vehicle: saline with Tween-80 95 % of control

CC1=C(I)C2(CCCCC2)OC1=O
inactive: dose: 100.0 mg/kg/injection, schedule: Q01DX001 (ip), vehicle: saline with Tween-80 101 % of control | dose: 200.0 mg/kg/injection, schedule: Q01DX001 (ip), vehicle: saline with Tween-80 94 % of control | dose: 400.0 mg/kg/injection, schedule: Q01DX001 (ip), vehicle: saline with Tween-80 93 % of control

CCOC(=O)C1CCCC(=O)C1Cc1cccc(OC)c1 (stereo unspecified)
inactive: [4] 100 % of control | [5] 106 % of control | [6] 100 % of control

COc1nc(Cl)cn(C)c1=O
inactive: dose: 15.0 mg/kg/injection, schedule: Q01DX005 (ip), vehicle: saline with Tween-80 101 % of control | dose: 30.0 mg/kg/injection, schedule: Q01DX005 (ip), vehicle: saline with Tween-80 98 % of control | dose: 60.0 mg/kg/injection, schedule: Q01DX005 (ip), vehicle: Klucel (hydroxypropylcellulose) (HPC) 95 % of control | [7] 107 % of control | dose: 120.0 mg/kg/injection, schedule: Q01DX005 (ip), vehicle: Klucel (hydroxypropylcellulose) (HPC) 106 % of control

CN=C(N)NN
inactive: dose: 25.0 mg/kg/injection, schedule: Q01DX009 (ip), vehicle: saline 101 % of control | dose: 50.0 mg/kg/injection, schedule: Q01DX009 (ip), vehicle: saline 97 % of control | dose: 100.0 mg/kg/injection, schedule: Q01DX009 (ip), vehicle: saline 93 % of control | dose: 200.0 mg/kg/injection, schedule: Q01DX009 (ip), vehicle: saline 97 % of control

O=C(On1nnc2ccccc2c1=O)c1ccccc1
inactive: dose: 12.5 mg/kg/injection, schedule: Q01DX009 (ip), vehicle: distilled water + Tween-80 100 % of control | dose: 25.0 mg/kg/injection, schedule: Q01DX009 (ip), vehicle: distilled water + Tween-80 102 % of control | dose: 50.0 mg/kg/injection, schedule: Q01DX009 (ip), vehicle: distilled water + Tween-80 94 % of control | dose: 100.0 mg/kg/injection, schedule: Q01DX009 (ip), vehicle: distilled water + Tween-80 106 % of control | dose: 200.0 mg/kg/injection, schedule: Q01DX009 (ip), vehicle: distilled water + Tween-80 103 % of control

C=CCC1(COS(N)(=O)=O)OC(n2cnc3c(N)ncnc32)C(O)C1O (stereo unspecified)
inactive: dose: 50.0 mg/kg/injection, schedule: Q01DX001 (ip), vehicle: saline 101 % of control | dose: 100.0 mg/kg/injection, schedule: Q01DX001 (ip), vehicle: saline 101 % of control | dose: 200.0 mg/kg/injection, schedule: Q01DX001 (ip), vehicle: saline 111 % of control | dose: 400.0 mg/kg/injection, schedule: Q01DX001 (ip), vehicle: saline 99 % of control

Cc1nc2[nH]cc(C)c2c(=O)[nH]1
inactive: [7] 103 % of control | [8] 97 % of control | [9] 105 % of control

Nc1ccccc1-n1nc2ccc3ccccc3c2n1
inactive: dose: 100.0 mg/kg/injection, schedule: Q04DX003 (ip), vehicle: saline with Tween-80 100 % of control | dose: 200.0 mg/kg/injection, schedule: Q04DX003 (ip), vehicle: saline with Tween-80 95 % of control | dose: 400.0 mg/kg/injection, schedule: Q04DX003 (ip), vehicle: saline with Tween-80 95 % of control

Cc1ccc2c(c1)C(=O)N(CC[P+](c1ccccc1)(c1ccccc1)c1ccccc1)C2=O
inactive: dose: 0.78 mg/kg/injection, schedule: Q01DX009 (ip), vehicle: water 100 % of control and 113 % of control | dose: 1.56 mg/kg/injection, schedule: Q01DX009 (ip), vehicle: water 117 % of control and 120 % of control | dose: 3.13 mg/kg/injection, schedule: Q01DX009 (ip), vehicle: water 121 % of control | dose: 12.5 mg/kg/injection, schedule: Q01DX009 (ip), vehicle: water 118 % of control

OC1(c2ccccc2)c2ccc(Br)cc2-c2cc(Br)ccc21
inactive: [10] 101 % of control | dose: 200.0 mg/kg/injection, schedule: Q01DX009 (ip), vehicle: saline with Tween-80 104 % of control | dose: 400.0 mg/kg/injection, schedule: Q01DX009 (ip), vehicle: saline with Tween-80 100 % of control

Nc1ccn([C@@H]2C=C(CO)[C@@H](O)[C@H]2O)c(=O)n1
inactive: dose: 2.25 mg/kg/injection, schedule: Q01DX009 (ip), vehicle: saline 111 % of control and 87 % of control
active: dose: 0.5 mg/kg/injection, schedule: Q01DX009 (ip), vehicle: saline 150 % of control | dose: 1.0 mg/kg/injection, schedule: Q01DX009 (ip), vehicle: saline 188 % of control

Cc1ccc(-c2nc3n(c2C=O)CCS3)cc1
inactive: dose: 100.0 mg/kg/injection, schedule: Q01DX001 (ip), vehicle: Klucel (hydroxypropylcellulose) (HPC) 112 % of control | dose: 200.0 mg/kg/injection, schedule: Q01DX001 (ip), vehicle: Klucel (hydroxypropylcellulose) (HPC) 106 % of control | dose: 400.0 mg/kg/injection, schedule: Q01DX001 (ip), vehicle: Klucel (hydroxypropylcellulose) (HPC) 98 % of control

Nc1ccc2c(c1)C(O)c1cccc(C(=O)O)c1-2 (stereo unspecified)
inactive: [7] 96 % of control | [8] 101 % of control | [9] 94 % of control

CCCSc1ccc([N+](=O)[O-])cc1
inactive: [1] 103 % of control | [2] 104 % of control | [3] 106 % of control

CCCOC(=O)c1nc(N(CC2CCCCC2)C(=O)NC)sc1/N=C/c1ccccc1
inactive: dose: 25.0 mg/kg/injection, schedule: Q01DX009 (ip), vehicle: saline with Tween-80 98 % of control | dose: 50.0 mg/kg/injection, schedule: Q01DX009 (ip), vehicle: saline with Tween-80 94 % of control | [10] 87 % of control

Cc1[nH]nc2c1NC(=O)OC(C)C2 (stereo unspecified)
inactive: dose: 50.0 mg/kg/injection, schedule: Q01DX005 (ip), vehicle: saline with Tween-80 101 % of control | dose: 100.0 mg/kg/injection, schedule: Q01DX005 (ip), vehicle: saline with Tween-80 101 % of control | dose: 200.0 mg/kg/injection, schedule: Q01DX005 (ip), vehicle: saline with Tween-80 106 % of control

C/C(=N\O)c1ccc2c3c(ccc([N+](=O)[O-])c13)CC2
inactive: dose: 6.25 mg/kg/injection, schedule: Q01DX009 (ip), vehicle: suspension in saline 97 % of control | dose: 12.5 mg/kg/injection, schedule: Q01DX009 (ip), vehicle: suspension in saline 98 % of control | dose: 25.0 mg/kg/injection, schedule: Q01DX009 (ip), vehicle: suspension in saline 97 % of control | dose: 50.0 mg/kg/injection, schedule: Q01DX009 (ip), vehicle: suspension in saline 96 % of control

C=CN=NNc1ccccc1OC
inactive: dose: 100.0 mg/kg/injection, schedule: Q04DX003 (ip), vehicle: saline + Tween-80 + alcohol 107 % of control | dose: 200.0 mg/kg/injection, schedule: Q04DX003 (ip), vehicle: saline + Tween-80 + alcohol 105 % of control | dose: 400.0 mg/kg/injection, schedule: Q04DX003 (ip), vehicle: saline + Tween-80 + alcohol 107 % of control

CCCCCCCCCCCCC1OCN2CCCCC12 (stereo unspecified)
inactive: dose: 50.0 mg/kg/injection, schedule: Q01DX005 (ip), vehicle: saline 106 % of control | dose: 100.0 mg/kg/injection, schedule: Q01DX005 (ip), vehicle: saline 100 % of control | dose: 200.0 mg/kg/injection, schedule: Q01DX005 (ip), vehicle: saline 113 % of control

O=C(Nc1ccccc1)c1cnc[nH]1
inactive: dose: 25.0 mg/kg/injection, schedule: Q01DX009 (ip), vehicle: Klucel (hydroxypropylcellulose) (HPC) 99 % of control | dose: 50.0 mg/kg/injection, schedule: Q01DX009 (ip), vehicle: Klucel (hydroxypropylcellulose) (HPC) 102 % of control | dose: 100.0 mg/kg/injection, schedule: Q01DX009 (ip), vehicle: Klucel (hydroxypropylcellulose) (HPC) 102 % of control | dose: 200.0 mg/kg/injection, schedule: Q01DX009 (ip), vehicle: Klucel (hydroxypropylcellulose) (HPC) 96 % of control

COc1ccc(OC)c(C=C(C(C)=O)C(C)=O)c1
inactive: dose: 25.0 mg/kg/injection, schedule: Q01DX009 (ip), vehicle: other 111 % of control | [4] 105 % of control | [5] 109 % of control | [6] 108 % of control | dose: 400.0 mg/kg/injection, schedule: Q01DX009 (ip), vehicle: other 115 % of control

COc1cc(/C=N/NC(=O)c2cc(OC)c(OC)c(OC)c2)ccc1O
inactive: [7] 99 % of control | [8] 101 % of control | [9] 95 % of control
